Tested on: renal progenitor cells
Assay: In situ hybridization for lhx1a expression in 10-somite embryos (renal progenitor cell expansion)
Format: in vivo
Settings: for responders at 0.2 µM / responders at 0.4 µM / responders at 0.8 µM / responders at 1.5 µM / responders at 3 µM / EC50: Danio rerio; for responders at 0.2 µM: 200 nM, read-out: Expansion of Cells (including repeats* and recounts**) 200 nM; for responders at 0.4 µM: 400 nM, read-out: Expansion of Cells (including repeats* and recounts**) 400 nM; for responders at 0.8 µM: 800 nM, read-out: Expansion of Cells (including repeats* and recounts**) 800 nM; for responders at 1.5 µM: read-out: Expansion of Cells (including repeats* and recounts**) 1.5 μM; for responders at 3 µM: read-out: Expansion of Cells (including repeats* and recounts**) 3 μM; for EC50: first pass EC50 from percent expansion (Excel trendline), average where several experiments
Procedure: PTBA was synthesized as described below. Hydroxyurea and aphidicolin were obtained from Sigma-Aldrich.
In situ hybridization and immunocytochemistry: In situ hybridization was performed as previously described with some modifications.142 Hybridization temperature was 65° C. Embryos were blocked in 2% blocking reagent (Roche) with 5% sheep serum in MAB (100 mM maleic acid and 150 mM NaCl [pH 7.5]). Whole-mount immunocytochemistry with 1:25 mouse anti-α6F antibody (Developmental Studies Hybridoma Bank) and 1:100 Cy3 secondary antibody (Jackson ImmunoResearch) was performed as described previously.108 Embryos were embedded in JB-4 for sectioning per the manufacturer's instructions (Polysciences), sectioned at 5 μm, and mounted with Cytoseal 60 (Richard-Allan Scientific).
The remaining PTBA analogs were synthesized.
In situ hybridization for lhx1a was performed as described above. […] Compounds were classified as effective, partially-effective or ineffective based on comparison to the effects of PTBA at a given concentration.
Testing of the compounds is on-going, but for those tested, Table 6 provides first pass EC50s based upon colormetric in situ hybridizations for the Lhx1a mRNA expression levels. After the procedure is run, in situ hybridization is done for the lhx1 mRNA expression and the number of embryos that show an expanded kidney field is manually counted to establish the percent of embryos showing expansion. Then the EC50 is determined by plotting the percent expansion in Excel, graphing the results and using the trendline function to determine the 50 percent point.

[1] = percent of embryos with expanded kidney field
[2] = percent of embryos with expanded kidney field, 1.5 μM
[3] = percent of embryos with expanded kidney field, 3 μM

Row | SMILES | responders at 0.2 µM [1] | responders at 0.4 µM [1] | responders at 0.8 µM [1] | responders at 1.5 µM [2] | responders at 3 µM [3] | EC50 | lhx1a expansion, percent of treated embryos (3 μM from 2 hpf, 10-somite embryos) | Expansion of Cells (including repeats* and recounts**) 1.5 μM [2] | Expansion of Cells (including repeats* and recounts**) 3 μM [3]
1 | O=C(CCCCCSc1nc2ccccc2s1)NO [UPHD-00070, 6-(1,3-benzothiazol-2-ylsulfanyl)-N-hydroxyhexanamide] | 0% | 0% | 0% | 0% | 0% | > 3000 nM | – | – | –
2 | COC(=O)CCCCCSc1ccccc1 [UPHD-00047, methyl 6-(phenyl-sulfanyl)hexanoate] | – | – | 100% | 100% | 100% | 400 nM | – | – | –
3 | COC(=O)CCCCCSc1ncccn1 [UPHD-00058, methyl 6-(pyrimidin-2-ylsulfanyl)hexanoate] | 17% | 33% | 20% | 28% | 6% | > 3000 nM | – | – | –
4 | COC(=O)CCCCCSc1ccc(F)cc1 [UPHD-00048, methyl 6-[(4-fluoro-phenyl)sulfanyl]hexanoate] | – | – | 100% | 100% | 100% | 280 nM | – | – | –
5 | O=C(CCCCCS(=O)(=O)c1ccc2ccccc2c1)NO [UPHD-00069, N-hydroxy-6-(naphthalene-2-sulfonyl)hexanamide] | 0% | 0% | 0% | 0% | 0% | > 3000 nM | – | – | –
6 | O=C(CCCCCSc1ccc2ccccc2c1)NO [UPHD-00059, N-hydroxy-6-(naphthalen-2-ylsulfanyl)hexanamide] | 0% | 5% | 12% | 16% | 33% | > 3000 nM | – | – | –
7 | COC(=O)CCCCCSc1ccccn1 [UPHD-00065, methyl 6-(pyridin-2-ylsulfanyl)hexanoate] | 0% | 20% | 6% | 11% | 29% | > 3000 nM | – | – | –
8 | O=C(CCCCSc1ccc(F)cc1)NO [UPHD-00034, 5-[(4-fluoro-phenyl)sulfanyl]-N-hydroxypentanamide] | – | 10% | – | – | – | – | – | – | –
9 | COC(=O)CCCCCSc1ccc(OC)cc1 [UPHD-00090, methyl 6-[(4-methoxy-phenyl)sulfanyl]hexanoate] | 0% | 12% | 25% | 26% | 65% | 2340 nM | – | – | –
10 | NC(CCSc1ccccc1)C(=O)O (stereo not drawn) [Compound 2-amino-PTBA, 2-amino-PTBA, reference compound] | – | – | – | – | – | – | no expansion | – | –
11 | Nc1ccccc1NC(=O)CCCCCSc1ccc2ccccc2c1 [UPHD-00060, N-(2-aminophenyl)-6-(naphthalen-2-ylsulfanyl)hexanamide] | 5% | 0% | 10% | 20% | 5% | > 3000 nM | – | – | –
12 | Cn1c(SCCCCCC(=O)Nc2ccccc2N)nc2ccccc21 [UPHD-00081, N-(2-aminophenyl)-6-[(1-methyl-1H-1,3-benzodiazol-2-yl)sulfanyl]hexanamide] | 0% | 10% | 10% | 20% | 32% | > 3000 nM | – | – | –
13 | Nc1ccccc1NC(=O)CCCCCSc1nc2ccccc2s1 [UPHD-00071, N-(2-aminophenyl)-6-(1,3-benzothiazol-2-ylsulfanyl)hexanamide] | 12% | 42% | 74% | 26% | 70% | – | – | – | –
14 | Nc1ccccc1NC(=O)CCCCCCSc1ccccc1 [UPHD-00044, N-(2-aminophenyl)-7-(phenylsulfanyl)heptanamide] | – | – | – | – | – | 1490 nM | – | – | –
15 | O=C(CCCCCSc1ccc(F)cc1)Nc1ccccc1O [UPHD-00077, 6-[(4-fluoro-phenyl)sulfanyl]-N-(2-hydroxyphenyl)hexanamide] | 40% | 100% | 100% | – | – | 230 nM | – | ND (All Dead) | ND (All Dead)
16 | O=C(CCCCCCSc1ccc(F)cc1)NO [UPHD-00042, 7-[(4-fluoro-phenyl)sulfanyl]-N-hydroxyheptanamide] | – | – | – | – | – | > 3000 nM | – | – | –

Row | SMILES | responders at 0.2 µM [1] | responders at 0.4 µM [1] | responders at 0.8 µM [1] | responders at 1.5 µM [2] | responders at 3 µM [3] | EC50 | lhx1a expansion, percent of treated embryos (3 μM from 2 hpf, 10-somite embryos) | Expansion of Cells (including repeats* and recounts**) 1.5 μM [2] | Expansion of Cells (including repeats* and recounts**) 3 μM [3]
17 | COC(=O)CCCCSc1ccc(F)cc1 [UPHD-00032, methyl 5-[(4-fluoro-phenyl)sulfanyl]pentanoate] | – | – | 0% | 0% | 0% | > 3000 nM | – | – | –
18 | Nc1ccccc1NC(=O)CCCCCSc1ccccn1 [UPHD-00073, N-(2-aminophenyl)-6-(pyridin-2-ylsulfanyl)hexanamide] | 5% | 10% | 0% | 20% | 30% | > 3000 nM | – | – | –
19 | Nc1ccccc1NC(=O)CCCCCSc1ccc(F)cc1 [UPHD-00053, N-(2-aminophenyl)-6-[(4-fluoro-phenyl)sulfanyl]hexanamide] | 20% | 5% | 85% | 100% | 100% | 790 nM | – | – | –
20 | Nc1ccccc1NC(=O)CCCCCSc1ccccc1 [UPHD-00049, N-(2-aminophenyl)-6-(phenylsulfanyl)hexanamide] | 5% | 35% | 60% | 95% | 100% | 890 nM | – | – | –
21 | COC(=O)CCCCCSc1ccc2ccccc2c1 [UPHD-00057, methyl 6-(naphthalen-2-ylsulfanyl)hexanoate] | 19% | 19% | 11% | 18% | 29% | > 3000 nM | – | – | –
22 | Nc1ccccc1NC(=O)CCCCSc1ccccc1 [UPHD-00038, N-(2-aminophenyl)-5-(phenylsulfanyl)pentanamide] | – | – | 58% | 81% | 85% | – | – | – | –
23 | Nc1ccccc1NC(=O)CCCSc1ccccc1 [UPHD-00036, N-(2-aminophenyl)-4-(phenylsulfanyl)butanamide] | – | – | 45% | 85% | 100% | – | – | – | –
24 | COC(=O)c1ccc(CSc2ccc(F)cc2)cc1 [UPHD-00046, methyl 4-{[(4-fluoro-phenyl)sul-fanyl]methyl}benzoate] | – | – | 17% | 30% | 20% | > 3000 nM | – | – | –
25 | O=C(CCCCCSc1ccccc1)NO [UPHD-00050, N-hydroxy-6-(phenyl-sulfanyl)hexanamide] | – | – | 0% | 0% | 0% | > 3000 nM | – | – | –
26 | COC(=O)CCCCSc1ccccc1 [UPHD-00033, methyl 5-(phenylsulfanyl)pentanoate] | – | – | 0% | 5% | 11% | > 3000 nM | – | – | –
27 | COC(=O)CCCCCCSc1ccccc1 [UPHD-00040, methyl 7-(phenylsulfanyl)heptanoate] | – | – | 6% | 15% | 45% | > 3000 nM | – | – | –
28 | O=C(CCCCCCSc1ccccc1)NO [UPHD-00041, N-hydroxy-7-(phenyl-sulfanyl)heptanamide] | – | – | 0% | 0% | 0% | > 3000 nM | – | – | –
29 | COC(=O)CCCCCS(=O)(=O)c1ccc2ccccc2c1 [UPHD-00063, methyl 6-(naphthalen-2-ylsulfonyl)hexanoate] | 10% | 5% | 0% | 0% | 6% | > 3000 nM | – | – | –
30 | Nc1ccccc1NC(=O)CCCCCSc1ncccn1 [UPHD-00072, N-(2-aminophenyl)-6-(pyrimidin-2-ylsulfanyl)hexanamide] | 0% | 0% | 5% | 5% | 5% | > 3000 nM | – | – | –
31 | Nc1ccccc1NC(=O)CCCCCCSc1ccc(F)cc1 [UPHD-00043, N-(2-aminophenyl)-7-[(4-fluoro-phenyl)sulfanyl]heptanamide] | 0% | 15% | – | – | 57% | 3000 nM | – | – | –
32 | COC(=O)CCCCCSc1nc2ccccc2s1 [UPHD-00062] | 11% | 12% | 0% | 0% | 0% | > 3000 nM | – | – | –
